Test results: patent US8969053B2, “Mutant YqhD enzyme for the production of a biochemical by fermentation” (Metabolic Explorer, priority 2009, dated 2015)
Where a chain is given by its changes, count along the chain named.

Legend:
[1] = target: T1, E. coli YqhD variant YqhD*(G149E) (Escherichia coli, UniProt Q46856, G149E); assay: inhibition by NADP+, YqhD*(G149E); assay type: biochemical
T1 construct: made in house; host or cells: E. coli MG1655 ΔyqhD::Km carrying pTRC99A-yqhD*(G149E)
T1 sequence (Q46856 1-387 G149E): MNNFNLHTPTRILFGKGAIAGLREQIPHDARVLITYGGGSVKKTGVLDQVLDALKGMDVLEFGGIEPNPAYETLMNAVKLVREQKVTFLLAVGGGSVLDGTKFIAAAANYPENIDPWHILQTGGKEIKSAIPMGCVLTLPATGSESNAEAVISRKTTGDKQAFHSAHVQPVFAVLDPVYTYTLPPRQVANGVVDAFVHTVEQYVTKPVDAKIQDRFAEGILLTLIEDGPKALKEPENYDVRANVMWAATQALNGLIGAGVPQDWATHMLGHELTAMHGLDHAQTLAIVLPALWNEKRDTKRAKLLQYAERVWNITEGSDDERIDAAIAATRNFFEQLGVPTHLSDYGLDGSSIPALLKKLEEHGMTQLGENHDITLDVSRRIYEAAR
Procedure: (§1) Methylglyoxal reductase activity was assayed by measuring the initial rate of NADPH oxidation with a spectrophotometer at a wavelength of 340 nm and at a constant temperature of 37° C. The reaction mixture using methylglyoxal as substrate was carried out in 20 mM Hepes pH 7.5, 0.1 mM Zinc sulphate, 0.2 mM NADPH, 0.6 μg of purified enzyme in a final volume of 1 ml. The reaction mixture was incubated for 5 min at 37° C. and then the reaction was initiated by the addition of the substrate methylglyoxal at a final concentration of 10 mM. Control assay (blank), lacking the substrate was run in parallel and the value measured for the control was subtracted to the value measured for the assay to take into account non-specific oxidation of NADPH.
(§2) The NADP+ inhibition constant for three purified enzymes (yqhD, yqhD*(G149E) and yqhD*(G149S A286T)) were determined in the conditions described for the activity assay, excepted for the concentration of methylglyoxal that was increased to 20 mM. […] Five concentrations of the inhibitor NADP+ were used (0-0.05-0.1-0.2-0.5 mM) and the kinetics were recorded for each condition of inhibition. The NADP+ inhibition constant (Ki) of each protein was determined with the module enzyme kinetic from the software Sigma Plot (Systat Software Inc, San Jose, Calif.). […]

[2] = target: T2, Escherichia coli MG1655 YqhD, native (wild type), SEQ ID NO: 56 (Escherichia coli, UniProt Q46856); assay: inhibition by NADP+, native YqhD; assay type: biochemical, E. coli
T2 construct: made in house; host or cells: E. coli MG1655 ΔyqhD::Km carrying pTRC99A-yqhD
T2 sequence (Q46856 1-387): T1 sequence (Q46856 1-387 G149E) with E149G
Procedure: as §1, §2

[3] = target: T3, E. coli YqhD variant YqhD*(G149S A286T) (Escherichia coli, UniProt Q46856, A286T/G149S); assay: inhibition by NADP+, YqhD*(G149S A286T); assay type: biochemical
T3 construct: made in house; host or cells: E. coli MG1655 ΔyqhD::Km carrying pTRC99A-yqhD*(G149S)(A286T)
T3 sequence (Q46856 1-387 G149S/A286T): T1 sequence (Q46856 1-387 G149E) with E149S, A286T
Procedure: as §1, §2

NC(=O)c1ccc[n+]([C@@H]2O[C@H](COP(=O)([O-])OP(=O)(O)OC[C@H]3O[C@@H](n4cnc5c(N)ncnc54)[C@H](OP(=O)(O)O)[C@@H]3O)[C@@H](O)[C@H]2O)c1 [NADP+]
Ki [1]: 28 ± 5 µM | Ki [2]: 68 µM | Ki [3]: 16 ± 2.5 µM
